Laboratory results from paper PMC4891385 (Clinical Drug Investigation, 2016).
Read-outs that look alike come from different tables or passages of the source.

Experiments:
[1] = furosemide 40 mg with lesinurad 400 mg vs alone
[2] = substrate: O=C(O)CSc1nnc(Br)n1-c1ccc(C2CC2)c2ccccc12; test: [14C]-lesinurad uptake, substrate test, OAT3 oocytes; format: in vitro ADME; settings: other: lesinurad as substrate of OAT3
[3] = substrate: O=C(O)CSc1nnc(Br)n1-c1ccc(C2CC2)c2ccccc12; test: [14C]-lesinurad uptake, substrate test, hOCT1 MDCK-II cells; format: in vitro ADME, human; settings: other: lesinurad as substrate of OCT1
[4] = atorvastatin 40 mg with lesinurad 200 mg vs alone

Molecule: CC(C)c1c(C(=O)Nc2ccccc2O)c(-c2ccccc2)c(-c2ccc(F)cc2)n1CCC(O)CC(O)CC(=O)O (stereo not drawn) [2-OH-atorvastatin]
- increase in AUC∞ [4]: 20%
- increase in Cmax [4]: 16%
- increase in Cmax (atorvastatin 40 mg with lesinurad 400 mg vs alone): 17–34%

Molecule: NS(=O)(=O)c1cc(C(=O)O)c(NCc2ccco2)cc1Cl [Furosemide, furosemide]
- reduction of amount excreted in urine [1]: approximately 25%

B1: OAT3 (Homo sapiens) (protein)
chain: MTFSEILDRVGSMGHFQFLHVAILGLPILNMANHNLLQIFTAATPVHHCRPPHNASTGPWVLPMGPNGKPERCLRFVHPPNASLPNDTQRAMEPCLDGWVYNSTKDSIVTEWDLVCNSNKLKEMAQSIFMAGILIGGLVLGDLSDRFGRRPILTCSYLLLAASGSGAAFSPTFPIYMVFRFLCGFGISGITLSTVILNVEWVPTRMRAIMSTALGYCYTFGQFILPGLAYAIPQWRWLQLTVSIPFFVFFLSSWWTPESIRWLVLSGKSSKALKILRRVAVFNGKKEEGERLSLEELKLNLQKEISLAKAKYTASDLFRIPMLRRMTFCLSLAWFATGFAYYSLAMGVEEFGVNLYILQIIFGGVDVPAKFITILSLSYLGRHTTQAAALLLAGGAILALTFVPLDLQTVRTVLAVFGKGCLSSSFSCLFLYTSELYPTVIRQTGMGVSNLWTRVGSMVSPLVKITGEVQPFIPNIIYGITALLGGSAALFLPETLNQPLPETIEDLENWSLRAKKPKQEPEVEKASQRIPLQPHGPGLGSS
- Km [2]: 2 µM

B2: OCT1 (Homo sapiens) (protein)
chain: MPTVDDILEQVGESGWFQKQAFLILCLLSAAFAPICVGIVFLGFTPDHHCQSPGVAELSQRCGWSPAEELNYTVPGLGPAGEAFLGQCRRYEVDWNQSALSCVDPLASLATNRSHLPLGPCQDGWVYDTPGSSIVTEFNLVCADSWKLDLFQSCLNAGFLFGSLGVGYFADRFGRKLCLLGTVLVNAVSGVLMAFSPNYMSMLLFRLLQGLVSKGNWMAGYTLITEFVGSGSRRTVAIMYQMAFTVGLVALTGLAYALPHWRWLQLAVSLPTFLFLLYYWCVPESPRWLLSQKRNTEAIKIMDHIAQKNGKLPPADLKMLSLEEDVTEKLSPSFADLFRTPRLRKRTFILMYLWFTDSVLYQGLILHMGATSGNLYLDFLYSALVEIPGAFIALITIDRVGRIYPMAMSNLLAGAACLVMIFISPDLHWLNIIIMCVGRMGITIAIQMICLVNAELYPTFVRNLGVMVCSSLCDIGGIITPFIVFRLREVWQALPLILFAVLGLLAAGVTLLLPETKGVALPETMKDAENLGRKAKPKENTIYLKVQTSEPSGT
- Km [3]: 20 µM
